# Test results reported in EP4670722A1, “PROPHYLACTIC OR AMELIORATING AGENT FOR CELL AGING” (Kyowa Pharma Chemical Co., Ltd., priority 2023, dated 2024).
# Experiments:
# laminin = experiment: Laminin secretion amount (ELISA) of tunicamycin-treated epidermal keratinocytes; format: cell-based, Human; settings: HaCaT, tunicamycin 0.1 µg/mL, 50 µg/mL to 200 µg/mL, 24 hours; recovery increased as content increased; Fig. 7
# Procedure: Human normal epidermal keratinocytes (HaCaT) were cultured using DMEM containing 10% FBS. The cultured cells were collected by trypsin treatment. The collected cells were seeded in a 24-well plate, and when they reached 100% confluence, tunicamycin was added at 0.1 µg/mL, and after 24 hours, the culture supernatant was collected. A group was also prepared in which FBS-free DMEM medium containing a test sample (2'-fucosyllactose) at 50 µg/mL, 100 µg/mL, or 200 µg/mL was added simultaneously with tunicamycin, and after 24 hours, the culture supernatant was collected. The culture supernatant was centrifuged, and the resulting supernatant was used as a sample. […] This total cell protein concentration was measured by the Bradford assay.
# Human normal epidermal keratinocytes were cultured and the culture supernatant was collected in the same manner as in Example 6-1, except that tunicamycin and the test sample were not added. […] This total cell protein concentration was measured by the Bradford assay.
# An Enzyme-Linked Immunosorbent Assay (ELISA) method was performed using an antibody against laminin to measure the amount of laminin in the sample. […] After stopping the reaction, the absorbance at a measurement wavelength of 450 nm was measured with a microplate reader. […]
# [1] = tested on: Human normal dermal fibroblasts (NB1RGB) with a PDL of 30 or less; experiment: Cell proliferation rate (MTT) of normal dermal fibroblasts; format: cell-based; settings: 50 µg/mL to 200 µg/mL, 2 days, activity increased as content increased, Fig. 2
# Procedure: Human normal dermal fibroblasts (NB1RGB) with a PDL of 30 or less and human senescent dermal fibroblasts (NB1RGB) with a PDL of 50 or more were each cultured using DMEM containing 10% FBS. The cultured cells were collected by trypsin treatment. The collected cells were seeded in a 96-well microplate at a concentration of 5.0 x 10^3 cells/well and cultured overnight. Thereafter, the cells were cultured for 2 days at 37°C in a medium for fibroblast proliferation (FBS-free) to which a test sample (sucrose or 2'-fucosyllactose) was added to a concentration of 50 µg/mL, 100 µg/mL,or 200 µg/mL. The medium was replaced with FBS-free DMEM medium, then 10 µL/well of 5 mg/mL 3-[4,5-dimethylthiazol-2-yl]-2,5-diphenyltetrazolium bromide (MTT) was added, and the cells were cultured at 37°C for 3 hours. […] After extraction, the absorbance of formazan (As, 492 nm) was measured with a microplate reader. […]
# Human normal dermal fibroblasts with a PDL of 30 or less and human senescent fibroblasts with a PDL of 50 or more were each cultured and the absorbance of formazan was measured in the same manner as in Example 2-1, except that no test sample was added. The obtained absorbance was designated as Ab, and the cell proliferation rate represented by the above formula (1) was determined for each case of PDL of 30 or less and PDL of 50 or more.
# type I collagen = experiment: Type I collagen expression analysis (ELISA); format: cell-based, Human; settings: at a concentration of at least 100 µg/mL or more, 48 hours; effect increased from 100 µg/mL to 200 µg/mL; Fig. 9
# Procedure: Human normal dermal fibroblasts (NB1RGB) with a PDL of 30 or less were cultured in DMEM (Dulbecco's Modified Eagle Medium, manufactured by Nissui Pharmaceutical Co., Ltd.) containing 10% FBS. The cultured cells were collected by trypsin treatment. The collected cells were seeded in a 96-well plate, and when they reached 100% confluence, FBS-free DMEM containing the test sample (2'-FL and sucrose) at 50 µg/mL, 100 µg/mL, or 200 µg/mL was added, and after culturing for 48 hours in a 37°C, 5% CO2 incubator, the culture supernatant was collected. The culture supernatant was centrifuged, and the resulting supernatant was used as a sample.
# The culture supernatant was collected and used as a sample in the same manner as in [Example 8-1], except that FBS-free DMEM not containing the test sample was used instead of FBS-free DMEM containing the test sample.
# An Enzyme-Linked Immunosorbent Assay (ELISA) method was performed using an antibody against type I collagen to measure the amount of type I collagen in the samples. […] After stopping the reaction, the absorbance at a measurement wavelength of 450 nm was measured using a microplate reader. […] The relative value of the type I collagen amount when each test sample was added was calculated, with the type I collagen amount in the control set to 1.
compound,measurement,setting,value
"C[C@@H]1O[C@@H](O[C@H]2[C@H](O[C@H]3[C@H](O)[C@@H](O)C(O)O[C@@H]3CO)O[C@H](CO)[C@H](O)[C@@H]2O)[C@@H](O)[C@H](O)[C@@H]1O (stereo partly drawn) [2'-FL, 2'-fucosyllactose]",laminin secretion,laminin,restored laminin secretion
same,proliferation activity of normal fibroblasts (cell proliferation rate),[1],improved the proliferation activity of normal fibroblasts
same,expression level of type I collagen,type I collagen,increased the expression level of type I collagen
